Data from ChEMBL document CHEMBL4665641, “Lead optimization and efficacy evaluation of quinazoline-based BET family inhibitors for potential treatment of cancer and inflammatory diseases” (Bioorg Med Chem Lett, 2019).
Active and inactive are the calls of the source. The rule behind the calls is not given here.

Key:
Kasumi 1 [1] = assay: Antitumor activity against human Kasumi-1 cells xenografted in CB17 SCID mouse assessed as tumor weight at 40 mg/kg, po QD for 25 days (reference value: 2.57 +/-0.27 g); format: functional; settings: time 25 day
Kasumi 1 [2] = assay: Antitumor activity against human Kasumi-1 cells xenografted in CB17 SCID mouse assessed as tumor weight at 10 mg/kg, po administered for 25 days (reference value: 2.57 +/- 0.27 g); format: functional; settings: time 25 day
MV4-11 = assay: Cytotoxicity against human MV4-11 cells assessed as inhibition of cell viability; format: functional, cell-based
[3] = Half life in CD-1 mouse at 2 mg/kg, iv; format: ADME, organism-based; settings: in vivo
[4] = Volume of distribution at steady state in CD-1 mouse at 2 mg/kg, iv; format: ADME, organism-based; settings: in vivo, read-out: Vdss
[5] = Stability in rat liver microsomes assessed as half life; format: ADME, Microsome
[6] = Toxicity in CD1 mouse assessed as clinical abnormalities at 50 to 100 mg/kg, po administered once daily for 5 days and observed for 5 days after last dose; format: organism-based; settings: in vivo, 120 h, dose 50-100 mg/kg, time 5 day
[7] = Apparent permeability across apical to basolateral side in human Caco2 cells; format: ADME, cell-based; settings: caco-2
[8] = Efflux ratio of apparent permeability from basolateral side to apical side over apical side to basolateral side in human Caco2 cells; format: ADME, cell-based; settings: caco-2
CYP3A4 = CYP3A4 (Homo sapiens, UniProt P08684); assay: Inhibition of human CYP3A4 at 10 uM using midazolam as substrate relative to control; format: ADME; settings: probe midazolam
CYP2D6 = CYP2D6 (Homo sapiens, UniProt P10635); assay: Inhibition of human CYP2D6 at 10 uM relative to control; format: ADME
Cytochrome P450 2C9 = Cytochrome P450 2C9 (Homo sapiens, UniProt P11712); assay: Inhibition of human CYP2C9 at […]; format: ADME; settings: dose 2.1 µM
Cytochrome P450 2C19 = Cytochrome P450 2C19 (Homo sapiens, UniProt P33261); assay: Inhibition of human CYP2C19 at 4.9 uM; format: ADME
[9] = Toxicity in CB17 SCID mouse xenografted with human Kasumi-1 cells assessed body weight loss at 10 to 40 mg/kg, po QD for 25 days; format: organism-based; settings: in vivo, 600 h, dose 10-40 mg/kg, time 25 day
Mus musculus [10] = assay: Antiarthritic activity in collagen/complete freund's adjuvant-induced arthritis DBA/1 mouse model assessed as paw thickness at 50 mg/kg, po administered via gavage starting from day 21 to day 41 post collagen/CFA challenge and measured on day 21 by caliper analysis (reference value: 2.48 millimeter); format: functional; settings: time 21 day
Mus musculus [11] = assay: Antiarthritic activity in collagen/complete freund's adjuvant-induced DBA/1 mouse model of arthritis assessed as reduction in joint inflammation at 50 mg/kg, po administered via gavage starting from day 21 to day 41 post collagen/CFA challenge and measured on day 42 by H&E staining based analysis; format: functional, organism-based; settings: time 21.0 day
Mus musculus [12] = assay: Antiarthritic activity in collagen/complete freund's adjuvant-induced arthritis DBA/1 mouse model assessed as reduction in histological damage of hind paw at 50 mg/kg, po administered via gavage starting from day 21 to day 41 post collagen/CFA challenge and measured on day 42 by hematoxylin-eosin staining based assay; format: functional, organism-based; settings: time 21.0 day
Mus musculus [13] = assay: Antiinflammatory activity in collagen/complete freund's adjuvant-induced arthritis DBA/1 mouse model assessed as IL-1 beta level in rear right paw at 50 mg/kg, po administered via gavage starting from day 21 to day 41 post collagen/CFA challenge and measured on day 42 measured per mg protein (reference value: 3.15 pg); format: functional; settings: time 21 day
Mus musculus [14] = assay: Antiinflammatory activity in collagen/complete freund's adjuvant-induced arthritis DBA/1 mouse model assessed as TNF-alpha level in rear right paw at 50 mg/kg, po administered via gavage starting from day 21 to day 41 post collagen/CFA challenge and measured on day 42 measured per mg protein (reference value: 0.88 pg); format: functional; settings: time 21 day
[15] = Apparent permeability across basolateral to apical side in human Caco2 cells; format: ADME, cell-based; settings: caco-2
Kasumi 1 [16] = assay: Antitumor activity against human Kasumi-1 cells xenografted in CB17 SCID mouse assessed as inhibition of tumor growth at 10 mg/kg, po QD for 29 days; format: functional; settings: Kasumi 1, po, 696 h, time 29 day, read-out: TGI
Mus musculus [17] = assay: Antiarthritic activity in collagen/complete freund's adjuvant-induced arthritis DBA/1 mouse model assessed as reduction in inflammatory symptoms at 50 mg/kg, po administered via gavage once daily starting from day 21 to day 41 post collagen/CFA challenge and measured from day 13 to 42; format: functional, organism-based; settings: time 21.0 day
Mus musculus [18] = assay: Antiinflammatory activity in collagen/complete freund's adjuvant-induced arthritis DBA/1 mouse model assessed as IFN-gamma level in rear right paw at 50 mg/kg, po administered via gavage starting from day 21 to day 41 post collagen/CFA challenge and measured on day 42 measured per mg protein (reference value: 0.78 pg); format: functional; settings: time 21 day
Mus musculus [19] = assay: Antiinflammatory activity in collagen/complete freund's adjuvant-induced arthritis DBA/1 mouse model assessed as M-CSF level in rear right paw at 50 mg/kg, po administered via gavage starting from day 21 to day 41 post collagen/CFA challenge and measured on day 42 measured per mg protein (reference value: 3.49 pg); format: functional; settings: time 21 day
Mus musculus [20] = assay: Antiinflammatory activity in collagen/complete freund's adjuvant-induced arthritis DBA/1 mouse model assessed as VEGF level in rear right paw at 50 mg/kg, po administered via gavage starting from day 21 to day 41 post collagen/CFA challenge and measured on day 42 measured per mg protein (reference value: 0.98 pg); format: functional; settings: time 21 day
[21] = target: T1, Bromodomain-containing protein 4 (Homo sapiens, UniProt O60885); assay: Inhibition of human full-length recombinant N-terminal His-tagged BRD4 (2 to 1362 residues) expressed in Sf9 cells using histone H4 peptide containing acetylated lysine residues as substrate preincubated with enzyme for 30 mins followed by incubation with substrate for 30 mins by Alphascreen assay […]
[22] = target: Bromodomain-containing protein 3 (Homo sapiens, UniProt Q15059); assay: Binding affinity to human partial length BRD3 (BD2) (G306 to P416 residues) expressed in bacterial expression system by BROMOscan assay
[23] = target: T1, Bromodomain-containing protein 4; assay: Binding affinity to human partial length BRD4 (BD1) (N44 to E168 residues) expressed in bacterial expression system by BROMOscan assay
[24] = target: T1, Bromodomain-containing protein 4; assay: Binding affinity to human partial length BRD4 (BD2) (K333 to E460 residues) expressed in bacterial expression system by BROMOscan assay
[25] = target: Bromodomain testis-specific protein (Homo sapiens, UniProt Q58F21); assay: Binding affinity to human partial length BRDT (BD1) (N21 to E137 residues) expressed in bacterial expression system by BROMOscan assay
[26] = Drug metabolism in rat assessed as oxidised metabolite formation by MetID study analysis; format: ADME

CYP2D6, sequence (P10635 whole entry): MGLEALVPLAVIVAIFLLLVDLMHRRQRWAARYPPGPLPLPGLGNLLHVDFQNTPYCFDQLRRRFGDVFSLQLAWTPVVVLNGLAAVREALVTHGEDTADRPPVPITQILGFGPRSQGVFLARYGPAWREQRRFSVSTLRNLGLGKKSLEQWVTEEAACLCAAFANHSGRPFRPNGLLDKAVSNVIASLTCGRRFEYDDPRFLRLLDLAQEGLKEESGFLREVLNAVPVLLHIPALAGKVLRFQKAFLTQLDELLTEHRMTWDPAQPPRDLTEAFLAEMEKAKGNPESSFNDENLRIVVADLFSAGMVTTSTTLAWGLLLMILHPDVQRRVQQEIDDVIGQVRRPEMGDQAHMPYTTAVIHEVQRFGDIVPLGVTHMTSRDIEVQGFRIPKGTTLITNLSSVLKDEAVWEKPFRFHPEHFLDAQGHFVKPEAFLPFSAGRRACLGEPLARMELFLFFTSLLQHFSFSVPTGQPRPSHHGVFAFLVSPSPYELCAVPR
Cytochrome P450 2C9, sequence (P11712 whole entry): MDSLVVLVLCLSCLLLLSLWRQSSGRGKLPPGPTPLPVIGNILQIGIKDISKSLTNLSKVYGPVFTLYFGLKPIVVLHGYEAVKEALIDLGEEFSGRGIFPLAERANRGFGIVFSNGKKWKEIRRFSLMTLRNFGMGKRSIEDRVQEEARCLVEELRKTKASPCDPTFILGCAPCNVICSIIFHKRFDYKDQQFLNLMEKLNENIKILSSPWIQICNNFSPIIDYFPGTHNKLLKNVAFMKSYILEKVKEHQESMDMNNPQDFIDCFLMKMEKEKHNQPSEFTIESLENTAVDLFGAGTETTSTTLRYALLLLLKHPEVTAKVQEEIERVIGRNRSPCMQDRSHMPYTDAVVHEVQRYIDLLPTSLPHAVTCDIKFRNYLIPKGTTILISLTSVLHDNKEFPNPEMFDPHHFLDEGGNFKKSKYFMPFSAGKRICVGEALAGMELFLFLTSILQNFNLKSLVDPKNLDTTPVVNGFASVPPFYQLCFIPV
Cytochrome P450 2C19, sequence (P33261 whole entry): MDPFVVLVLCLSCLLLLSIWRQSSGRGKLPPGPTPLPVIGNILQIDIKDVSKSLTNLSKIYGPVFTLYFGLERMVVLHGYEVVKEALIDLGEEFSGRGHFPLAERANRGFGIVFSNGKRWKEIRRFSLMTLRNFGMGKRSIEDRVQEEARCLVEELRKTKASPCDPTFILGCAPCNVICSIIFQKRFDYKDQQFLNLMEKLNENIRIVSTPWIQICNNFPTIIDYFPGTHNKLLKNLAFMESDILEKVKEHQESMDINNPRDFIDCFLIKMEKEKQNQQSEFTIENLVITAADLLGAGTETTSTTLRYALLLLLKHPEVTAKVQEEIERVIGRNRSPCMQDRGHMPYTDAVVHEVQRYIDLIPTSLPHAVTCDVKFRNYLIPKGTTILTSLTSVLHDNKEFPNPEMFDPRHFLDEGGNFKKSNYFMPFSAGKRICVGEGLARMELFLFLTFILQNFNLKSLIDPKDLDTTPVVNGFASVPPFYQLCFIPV
Bromodomain-containing protein 3, sequence (Q15059 whole entry, the tested form may be a part): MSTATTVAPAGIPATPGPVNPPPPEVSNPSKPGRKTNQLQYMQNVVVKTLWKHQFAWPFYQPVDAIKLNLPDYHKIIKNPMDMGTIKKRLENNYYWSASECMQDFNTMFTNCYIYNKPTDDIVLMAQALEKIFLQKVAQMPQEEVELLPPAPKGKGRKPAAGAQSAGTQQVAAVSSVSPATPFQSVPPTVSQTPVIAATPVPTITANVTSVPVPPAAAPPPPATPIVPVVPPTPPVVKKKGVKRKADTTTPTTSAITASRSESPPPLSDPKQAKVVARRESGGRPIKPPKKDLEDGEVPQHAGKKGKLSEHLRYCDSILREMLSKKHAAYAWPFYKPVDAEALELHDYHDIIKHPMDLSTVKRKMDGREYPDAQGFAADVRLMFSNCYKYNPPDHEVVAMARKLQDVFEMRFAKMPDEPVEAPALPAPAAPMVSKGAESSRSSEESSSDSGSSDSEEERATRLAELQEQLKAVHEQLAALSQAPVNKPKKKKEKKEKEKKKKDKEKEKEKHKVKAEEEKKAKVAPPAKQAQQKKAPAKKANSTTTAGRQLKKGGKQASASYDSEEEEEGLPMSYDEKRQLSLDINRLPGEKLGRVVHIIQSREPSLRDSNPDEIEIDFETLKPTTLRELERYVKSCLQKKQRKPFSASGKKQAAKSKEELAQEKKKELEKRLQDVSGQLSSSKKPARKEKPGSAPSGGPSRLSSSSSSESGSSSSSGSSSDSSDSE
CYP3A4, sequence (P08684 whole entry): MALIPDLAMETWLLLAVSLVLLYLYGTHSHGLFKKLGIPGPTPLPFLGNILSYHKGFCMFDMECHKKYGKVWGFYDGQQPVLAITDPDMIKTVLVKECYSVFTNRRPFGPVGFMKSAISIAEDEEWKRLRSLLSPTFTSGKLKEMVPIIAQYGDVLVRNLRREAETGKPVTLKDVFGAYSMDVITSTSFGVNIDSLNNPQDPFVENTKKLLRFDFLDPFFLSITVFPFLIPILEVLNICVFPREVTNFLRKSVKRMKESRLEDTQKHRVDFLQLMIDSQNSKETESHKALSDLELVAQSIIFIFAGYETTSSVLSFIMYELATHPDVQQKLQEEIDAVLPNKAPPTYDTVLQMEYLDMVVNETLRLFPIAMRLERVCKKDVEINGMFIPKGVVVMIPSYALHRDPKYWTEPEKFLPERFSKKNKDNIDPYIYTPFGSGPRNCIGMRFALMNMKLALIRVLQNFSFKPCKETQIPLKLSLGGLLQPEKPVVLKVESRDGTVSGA

Cc1noc(C)c1-c1ccc2nc(-c3cnn(CC(C)(C)O)c3)nc(N3CCOC[C@@H]3c3ccccc3)c2c1
Activity (Kasumi 1 [1]): 0.04 g
Activity (Kasumi 1 [2]): 1.51 g
IC50 (MV4-11): 940 nM
half-life [3]: 1.7 h
Vd [4]: 1.04 L/kg
half-life [5]: 0.7 h
Activity [6]: Non-Toxic
Papp [7]: 18.2 10^-6 cm/s
Ratio [8]: 1
inhibition at 10 µM (CYP3A4): < 50%
inhibition at 10 µM (CYP2D6): < 50%
INH (Cytochrome P450 2C9): Active
inhibition (INH) (Cytochrome P450 2C19): Active
Activity [9]: Non-Toxic
Activity (Mus musculus [10]): 1.83 mm
Activity (Mus musculus [11]): Active
Activity (Mus musculus [12]): Active
Activity (Mus musculus [13]): 2.06 pg
Activity (Mus musculus [14]): 0.46 pg
Papp [15]: 18.4 10^-6 cm/s
inhibition in vivo at 10 mg/kg (Kasumi 1 [16]): 41.9%
Activity (Mus musculus [17]): Active
Activity (Mus musculus [18]): 1.29 pg
Activity (Mus musculus [19]): 2.89 pg
Activity (Mus musculus [20]): 1.6 pg
IC50 [21]: 14 nM
Kd [22]: 44 nM
Kd [23]: 17 nM
Kd [24]: 81 nM
Kd [25]: 76 nM
Drug metabolism [26]: Metabolite_Detected
